Key:
[1] = (§1) The drug is tested on Z-025 corresponding to rabbit gut metagenome with ENA study accession number: PRJEB37062 and ENA sample accession number: ERS12561824 for biotransformation under anaerobic condition. The drug concentrations were measured over 9 timepoints collected between 0 and 24 hours of incubation by liquid-chromatography-coupled mass spectrometry (LC–MS); conditions: 2 µM
[2] = as §1, with “Z-020” for “Z-025”, “ERS12561819” for “ERS12561824”; conditions: 2 µM
[3] = as §1, with “Z-018” for “Z-025”, “pig” for “rabbit”, “ERS12561817” for “ERS12561824”; conditions: 2 µM
[4] = as §1, with “Z-017” for “Z-025”, “mouse” for “rabbit”, “ERS12561816” for “ERS12561824”; conditions: 2 µM
[5] = as §1, with “Z-014” for “Z-025”, “rat” for “rabbit”, “ERS12561814” for “ERS12561824”; conditions: 2 µM
[6] = as §1, with “Z-012” for “Z-025”, “to” for “to rabbit gut”, “ERS12561812” for “ERS12561824”; conditions: 2 µM
[7] = as §1, with “WLS-370” for “Z-025”, “human” for “rabbit”, “ERS12561793” for “ERS12561824”; conditions: 2 µM
[8] = as §1, with “WLS-220” for “Z-025”, “human” for “rabbit”, “ERS12561769” for “ERS12561824”; conditions: 2 µM
[9] = as §1, with “WLS-170” for “Z-025”, “human” for “rabbit”, “ERS12561762” for “ERS12561824”; conditions: 2 µM
[10] = as §1, with “WLS-010” for “Z-025”, “human” for “rabbit”, “ERS12561743” for “ERS12561824”; conditions: 2 µM
[11] = as §1, with “WLS-007” for “Z-025”, “human” for “rabbit”, “ERS12561742” for “ERS12561824”; conditions: 2 µM
[12] = human gut metagenome, 24 h, 2 µM
[13] = human gut metagenome, 24 h, 2 µM; remark: listed apart in the source
[14] = human gut metagenome, 24 h, 2 µM; remark: listed apart in the source
[15] = human gut metagenome, 24 h, 2 µM; remark: listed apart in the source
[16] = human gut metagenome, 24 h, 2 µM; remark: listed apart in the source
[17] = human gut metagenome, 24 h, 2 µM; remark: listed apart in the source
[18] = human gut metagenome, 24 h, 2 µM; remark: listed apart in the source
[19] = human gut metagenome, 24 h, 2 µM; remark: listed apart in the source
[20] = human gut metagenome, 24 h, 2 µM; remark: listed apart in the source
Further: call rule not given here.

SMILES | Bacterial Biotransformation [1] | Bacterial Biotransformation [2] | Bacterial Biotransformation [3] | Bacterial Biotransformation [4] | Bacterial Biotransformation [5] | Bacterial Biotransformation [6] | Bacterial Biotransformation [7] | Bacterial Biotransformation [8] | Bacterial Biotransformation [9] | Bacterial Biotransformation [10] | Bacterial Biotransformation [11] | Bacterial Biotransformation [12] | Bacterial Biotransformation [13] | Bacterial Biotransformation [14] | Bacterial Biotransformation [15] | Bacterial Biotransformation [16] | Bacterial Biotransformation [17] | Bacterial Biotransformation [18] | Bacterial Biotransformation [19] | Bacterial Biotransformation [20]
CN(C)CCC=C1c2ccccc2COc2ccccc21 [DOXEPIN] | Compound NOT metabolized | Compound NOT metabolized | Compound NOT metabolized | Compound NOT metabolized | Compound NOT metabolized | Compound NOT metabolized | Compound metabolized | Compound metabolized | Compound metabolized | Compound NOT metabolized | Compound metabolized | Compound NOT metabolized | Compound NOT metabolized | Compound NOT metabolized | Compound NOT metabolized | Compound NOT metabolized | Compound metabolized | Compound NOT metabolized | Compound metabolized | Compound NOT metabolized
CC(C)c1c(CN(C)C(C)Cc2ccccc2)n(C)n(-c2ccccc2)c1=O (stereo not given) [FAMPROFAZONE] | Compound NOT metabolized | Compound NOT metabolized | Compound NOT metabolized | Compound NOT metabolized | Compound metabolized | Compound metabolized | Compound metabolized | Compound metabolized | Compound metabolized | Compound metabolized | Compound metabolized | Compound metabolized | Compound metabolized | Compound metabolized | Compound metabolized | Compound metabolized | Compound metabolized | Compound metabolized | Compound metabolized | Compound metabolized
Nc1nc(N)nc(-c2cc(Cl)ccc2Cl)n1.O=C(O)/C=C\C(=O)O [IRSOGLADINE MALEATE] | Compound metabolized | Compound NOT metabolized | Compound NOT metabolized | Compound NOT metabolized | Compound NOT metabolized | Compound NOT metabolized | Compound NOT metabolized | Compound NOT metabolized | Compound NOT metabolized | Compound NOT metabolized | Compound NOT metabolized | Compound NOT metabolized | Compound NOT metabolized | Compound NOT metabolized | Compound NOT metabolized | Compound NOT metabolized | Compound metabolized | Compound NOT metabolized | Compound metabolized | Compound NOT metabolized

Continued, values first:

Bacterial Biotransformation [1] | Bacterial Biotransformation [2] | Bacterial Biotransformation [3] | Bacterial Biotransformation [4] | Bacterial Biotransformation [5] | Bacterial Biotransformation [6] | Bacterial Biotransformation [7] | Bacterial Biotransformation [8] | Bacterial Biotransformation [9] | Bacterial Biotransformation [10] | Bacterial Biotransformation [11] | Bacterial Biotransformation [12] | Bacterial Biotransformation [13] | Bacterial Biotransformation [14] | Bacterial Biotransformation [15] | Bacterial Biotransformation [16] | Bacterial Biotransformation [17] | Bacterial Biotransformation [18] | Bacterial Biotransformation [19] | Bacterial Biotransformation [20] | SMILES
Compound NOT metabolized | Compound metabolized | Compound metabolized | Compound metabolized | Compound NOT metabolized | Compound metabolized | Compound metabolized | Compound metabolized | Compound metabolized | Compound metabolized | Compound metabolized | Compound metabolized | Compound metabolized | Compound metabolized | Compound metabolized | Compound metabolized | Compound metabolized | Compound metabolized | Compound metabolized | Compound metabolized | CC(=O)OCC(=O)[C@@]1(OC(C)=O)[C@@H](C)C[C@H]2[C@@H]3C[C@H](F)C4=CC(=O)C=C[C@]4(C)[C@@]3(F)[C@@H](O)C[C@@]21C [DIFLORASONE DIACETATE]
Compound NOT metabolized | Compound metabolized | Compound metabolized | Compound metabolized | Compound NOT metabolized | Compound NOT metabolized | Compound metabolized | Compound metabolized | Compound metabolized | Compound metabolized | Compound metabolized | Compound metabolized | Compound metabolized | Compound metabolized | Compound metabolized | Compound metabolized | Compound metabolized | Compound metabolized | Compound metabolized | Compound NOT metabolized | C[C@]12CCC(=O)C=C1[C@@H]1C[C@@H]1[C@H]1[C@@H]3[C@@H]4C[C@@H]4[C@@]4(CCC(=O)O4)[C@@]3(C)CC[C@@H]12 [DROSPIRENONE]
Compound metabolized | Compound metabolized | Compound metabolized | Compound metabolized | Compound metabolized | Compound metabolized | Compound metabolized | Compound metabolized | Compound metabolized | Compound metabolized | Compound metabolized | Compound metabolized | Compound metabolized | Compound metabolized | Compound metabolized | Compound metabolized | Compound metabolized | Compound metabolized | Compound metabolized | Compound metabolized | C#C[C@]1(OC(C)=O)CC[C@H]2[C@@H]3CCC4=C[C@@H](OC(C)=O)CC[C@@H]4[C@H]3CC[C@@]21C [ETHYNODIOL DIACETATE]
Compound NOT metabolized | Compound NOT metabolized | Compound NOT metabolized | Compound NOT metabolized | Compound NOT metabolized | Compound NOT metabolized | Compound metabolized | Compound metabolized | Compound metabolized | Compound NOT metabolized | Compound metabolized | Compound NOT metabolized | Compound NOT metabolized | Compound NOT metabolized | Compound NOT metabolized | Compound metabolized | Compound metabolized | Compound metabolized | Compound metabolized | Compound NOT metabolized | CN1CCC(=C2c3ccccc3CC(=O)c3sccc32)CC1.O=C(O)/C=C/C(=O)O [KETOTIFEN FUMARATE]
Compound metabolized | Compound NOT metabolized | Compound metabolized | Compound metabolized | Compound NOT metabolized | Compound NOT metabolized | Compound NOT metabolized | Compound metabolized | Compound metabolized | Compound metabolized | Compound NOT metabolized | Compound metabolized | Compound NOT metabolized | Compound metabolized | Compound metabolized | Compound metabolized | Compound metabolized | Compound metabolized | Compound metabolized | Compound NOT metabolized | CC[C@H](C)C(=O)O[C@H]1CCC=C2C=C[C@H](C)[C@H](CC[C@@H]3C[C@@H](O)CC(=O)O3)[C@H]21 [MEVASTATIN]
